The subject of one data set is Malassezia furfur. The data set can be described thus: Antifungal activity against Malassezia furfur after 2 to 4 days by agar plate dilution method. Format: functional.
Another data set has as its system Staphylococcus aureus. As to the kind of experiment: Antibacterial activity against methicillin resistant Staphylococcus aureus after 24 hrs by agar plate dilution method. Type of data set: functional.
For data set [1], the system named is K562. The data set can be described thus: Induction of apoptosis in human K562 cells assessed as late apoptotic cells at 12.5 ug/ml by Annexin V/propidium iodide staining-based flow cytometry. Type of data set: functional.
Data set [2] concerns MOLT-4. The data set can be described thus: Antiproliferative activity against human MOLT4 cells after 24 hrs. Format: functional, cell-based. The following applies: MOLT-4, 24 h.
In data set [3] the test system is Rattus norvegicus. As to the kind of experiment: Anti-inflammatory activity in Wistar Han rat assessed as reduction in carrageenan-induced increase in infiltrating cells at 10 mg/kg, po administered 1 hr prior to carrageenan challenge by vital trypan blue staining-based microscopic method. Type of data set: functional.
In data set [4] the test system is MCF7. As to the kind of experiment: Cytotoxicity against human wild-type MCF7 cells after 72 hrs. Type of data set: functional, cell-based. The following applies: MCF7, 72 h.
Data set [5] deals with K562. The data set can be described thus: Antiproliferative activity against human K562 cells after 24 hrs. Format: functional, cell-based. The following applies: K562, 24 h.
Data set [6] is described as follows: Antiproliferative activity against spleen cells from SBP-immunized mouse assessed as fluorescence intensity at 5 uM after 3 days by Alamar blue dye-based method (reference value: 2781 +/- 59I). Format: functional, Spleen cell. (In general: Alamar Blue is a resazurin reagent that responds to reducing activity.)
Data set [7] addresses Indoleamine 2,3-dioxygenase 1 (Homo sapiens, UniProt P14902). The data set can be described thus: Inhibition of IDO-1 (unknown origin).
The test system of data set [8] is HL-60. As to the kind of experiment: Antiproliferative activity against human HL60 cells after 48 hrs. Format: functional, cell-based.
The test system of data set [9] is Rattus norvegicus. The data set can be described thus: Anti-inflammatory activity in Wistar Han rat assessed as reduction in carrageenan-induced exudate volume at 10 mg/kg, po administered 1 hr prior to carrageenan challenge. Type of data set: functional.
In data set [10] the test system is K562. As to the kind of experiment: Antiproliferative activity against human K562 cells after 48 hrs. Type of data set: functional, cell-based. The note with it: K562, 48 h.
Data set [11] has as its target T1, Polyunsaturated fatty acid 5-lipoxygenase (Homo sapiens, UniProt P09917).
T1 sequence (P09917 whole entry): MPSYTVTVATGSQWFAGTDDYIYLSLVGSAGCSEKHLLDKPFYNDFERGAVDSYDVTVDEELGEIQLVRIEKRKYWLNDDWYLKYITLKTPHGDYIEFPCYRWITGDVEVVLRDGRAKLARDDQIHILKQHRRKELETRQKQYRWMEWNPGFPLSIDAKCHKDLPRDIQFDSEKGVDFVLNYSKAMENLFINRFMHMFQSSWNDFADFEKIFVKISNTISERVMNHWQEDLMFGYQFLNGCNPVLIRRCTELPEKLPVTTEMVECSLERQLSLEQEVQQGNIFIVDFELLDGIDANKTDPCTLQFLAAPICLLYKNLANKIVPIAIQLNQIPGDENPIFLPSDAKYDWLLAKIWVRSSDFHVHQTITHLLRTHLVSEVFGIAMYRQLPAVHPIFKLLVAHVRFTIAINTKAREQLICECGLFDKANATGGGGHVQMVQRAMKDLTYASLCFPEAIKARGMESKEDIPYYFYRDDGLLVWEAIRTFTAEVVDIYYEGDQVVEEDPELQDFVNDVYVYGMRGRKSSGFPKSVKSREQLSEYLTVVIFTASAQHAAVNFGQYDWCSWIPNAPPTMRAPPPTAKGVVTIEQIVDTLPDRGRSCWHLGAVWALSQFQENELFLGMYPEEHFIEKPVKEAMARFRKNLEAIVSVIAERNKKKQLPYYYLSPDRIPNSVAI
The data set can be described thus: Inhibition of 5-LO in fMLP-stimulated human neutrophils by HPLC analysis.

The test system of data set [12] is Rattus norvegicus. The data set can be described thus: Anti-inflammatory activity in Wistar Han rat assessed as reduction of carrageenan-induced PGE2 levels at 10 mg/kg, po administered 1 hr prior to carrageenan challenge by radioimmunoassay. Format: functional.
Data set [13] is described as follows: Inhibition of EGF-induced HGF production in HDF at 2 mg/ml after 72 hrs by ELISA. Type of data set: functional. The note with it: Homo sapiens. (In general: ELISA stands for enzyme-linked immunosorbent assay.)
Data set [14] concerns K562. As to the kind of experiment: Induction of apoptosis in human K562 cells assessed as late apoptotic cells at 25 ug/ml by Annexin V/propidium iodide staining-based flow cytometry. Type of data set: functional. Background: A flow cytometer gives signals particle by particle.
The test system of data set [15] is HL-60. As to the kind of experiment: Antiproliferative activity against human HL60 cells after 24 hrs. Type of data set: functional, cell-based. The note with it: HL-60, 24 h.
A short description of data set [16]: Antiproliferative activity against spleen cells from SBP-immunized mouse assessed as fluorescence intensity at 10 uM after 3 days by Alamar blue dye-based method (reference value: 2781 +/- 59I). Type of data set: functional, Spleen cell.
Data set [17] concerns Rattus norvegicus. As to the kind of experiment: Anti-inflammatory activity in Wistar Han rat assessed as reduction of carrageenan-induced pleural LTB4 levels at 10 mg/kg, po administered 1 hr prior to carrageenan challenge by HPLC analysis. Format: functional.
For data set [18], the system named is K562. As to the kind of experiment: Induction of apoptosis in human K562 cells assessed as late apoptotic cells at 6.25 ug/ml by Annexin V/propidium iodide staining-based flow cytometry. Type of data set: functional.
A short description of data set [19]: Inhibition of PMA-induced HGF production in HDF at 0.1 mg/ml after 24 hrs by ELISA. Type of data set: functional. The note with it: Homo sapiens.
Data set [20] deals with NCI/ADR-RES. The data set can be described thus: Cytotoxicity against human MCF7/ADR cells after 72 hrs. Format: functional, cell-based.
Data set [21] concerns K562. As to the kind of experiment: Antiproliferative activity against human K562 cells after 48 hrs by MTT staining-based method. Type of data set: functional, cell-based. The note with it: K562, 48 h.
The target in data set [22] is T1, Polyunsaturated fatty acid 5-lipoxygenase. The data set can be described thus: Inhibition of 5-LO in LPS-stimulated human neutrophils by HPLC analysis.
For data set [23], the system named is MOLT-4. The data set can be described thus: Antiproliferative activity against human MOLT4 cells after 48 hrs. Type of data set: functional, cell-based. The note with it: MOLT-4, 48 h.
Data set [24] is filed under the species Homo sapiens. The data set can be described thus: Inhibition of human DNA topoisomerase 2 ATPase activity at 400 mM by Topo-2 ATPase assay.
Data set [25] is filed under the species Homo sapiens. As to the kind of experiment: Inhibition of human DNA topoisomerase 2 ATPase activity at 200 mM by Topo-2 ATPase assay.
Data set [26] is filed under the species Homo sapiens. The data set can be described thus: Inhibition of human DNA topoisomerase 2 ATPase activity at 300 mM by Topo-2 ATPase assay.
Data set [27] relates to NCI/ADR-RES. As to the kind of experiment: Cytotoxicity against human MCF7/ADR cells assessed as inhibition of cell proliferation at 10^-6 M after 5 days by MTT assay. Type of data set: functional. The note with it: 120 h.
The species entered for data set [28] is Homo sapiens. The data set can be described thus: Inhibition of human DNA topoisomerase 2-mediated decatenation of kinetoplast DNA at […] by kinetoplast DNA decatenation assay.
In data set [29] the target is ATP-dependent translocase ABCB1 (Homo sapiens, UniProt P08183). As to the kind of experiment: Inhibition of MDR1 in human MCF7/ADR cells assessed as potentiation of verapamil-induced cytotoxicity by measuring cell growth (reference value: 78.2%). Also on record: scale not given: the % may be the effect or the level left. Type of data set: cell-based.
Data set [30] relates to NCI/ADR-RES. The data set can be described thus: Cytotoxicity against human MCF7/ADR cells assessed as cell growth at 3 mM after 72 hrs relative to control. Type of data set: functional. The following applies: read-out: Activity.
The subject of data set [31] is MCF7. As to the kind of experiment: Cytotoxicity against human wild-type MCF7 cells assessed as cell growth at 3 mM after 72 hrs relative to control. The following applies: MCF7, 72 h, read-out: Activity. Type of data set: functional.

Structures are written as SMILES. ≈ marks a conversion by molar mass, not a printed value. Counter-ions that a name gives are not always drawn.

Indoleamine 2,3-dioxygenase 1, sequence (P14902 whole entry): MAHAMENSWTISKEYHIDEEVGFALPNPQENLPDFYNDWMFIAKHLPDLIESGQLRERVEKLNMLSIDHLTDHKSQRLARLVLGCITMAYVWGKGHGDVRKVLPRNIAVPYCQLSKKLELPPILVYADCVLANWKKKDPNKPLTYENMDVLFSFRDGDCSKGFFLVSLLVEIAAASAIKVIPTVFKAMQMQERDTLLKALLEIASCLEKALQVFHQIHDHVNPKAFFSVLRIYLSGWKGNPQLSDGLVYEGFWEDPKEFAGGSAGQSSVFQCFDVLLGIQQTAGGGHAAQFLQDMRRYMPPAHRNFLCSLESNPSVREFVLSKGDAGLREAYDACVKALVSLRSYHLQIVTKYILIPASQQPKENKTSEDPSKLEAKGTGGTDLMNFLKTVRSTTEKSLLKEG
ATP-dependent translocase ABCB1, sequence (P08183 whole entry): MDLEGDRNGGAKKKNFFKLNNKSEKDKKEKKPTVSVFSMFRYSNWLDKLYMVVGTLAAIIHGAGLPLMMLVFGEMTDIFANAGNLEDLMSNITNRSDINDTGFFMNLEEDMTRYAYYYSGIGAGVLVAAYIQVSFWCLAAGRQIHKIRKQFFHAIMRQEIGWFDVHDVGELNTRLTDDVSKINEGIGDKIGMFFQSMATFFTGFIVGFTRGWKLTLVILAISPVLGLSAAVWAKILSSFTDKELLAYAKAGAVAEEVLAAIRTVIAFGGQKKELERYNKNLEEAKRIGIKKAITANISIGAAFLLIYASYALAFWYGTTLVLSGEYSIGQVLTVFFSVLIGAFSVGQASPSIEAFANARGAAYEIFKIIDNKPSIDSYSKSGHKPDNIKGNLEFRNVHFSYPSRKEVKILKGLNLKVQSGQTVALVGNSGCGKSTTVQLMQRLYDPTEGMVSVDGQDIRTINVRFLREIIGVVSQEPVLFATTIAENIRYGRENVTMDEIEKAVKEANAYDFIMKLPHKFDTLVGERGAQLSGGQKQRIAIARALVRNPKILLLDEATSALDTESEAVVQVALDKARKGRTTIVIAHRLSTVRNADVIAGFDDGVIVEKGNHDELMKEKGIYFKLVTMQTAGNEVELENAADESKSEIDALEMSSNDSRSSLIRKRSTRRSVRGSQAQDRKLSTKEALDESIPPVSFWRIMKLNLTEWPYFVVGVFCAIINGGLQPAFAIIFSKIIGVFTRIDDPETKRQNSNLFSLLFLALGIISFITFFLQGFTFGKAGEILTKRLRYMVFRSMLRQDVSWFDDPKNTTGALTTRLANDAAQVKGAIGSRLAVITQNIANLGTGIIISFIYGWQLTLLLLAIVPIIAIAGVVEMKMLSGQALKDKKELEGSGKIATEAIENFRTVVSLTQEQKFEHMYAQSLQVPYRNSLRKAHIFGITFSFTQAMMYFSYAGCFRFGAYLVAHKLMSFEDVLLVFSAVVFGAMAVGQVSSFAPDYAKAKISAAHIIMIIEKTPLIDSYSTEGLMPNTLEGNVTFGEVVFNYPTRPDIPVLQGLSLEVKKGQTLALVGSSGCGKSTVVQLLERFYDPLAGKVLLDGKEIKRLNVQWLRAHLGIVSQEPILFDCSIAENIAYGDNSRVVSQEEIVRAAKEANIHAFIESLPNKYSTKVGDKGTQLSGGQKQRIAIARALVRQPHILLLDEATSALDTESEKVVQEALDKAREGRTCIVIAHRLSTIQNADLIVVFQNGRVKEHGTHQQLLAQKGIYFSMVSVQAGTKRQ

Take `O=C1c2cc(Br)ccc2-n2c1nc1ccccc1c2=O`: the values for the MIC with Malassezia furfur and with Staphylococcus aureus were 2.5 µg/mL (≈ 7.64 µM) and 0.1 µg/mL (≈ 0.306 µM), respectively.
Turning to `O=C1c2cc(F)ccc2-n2c1nc1ccccc1c2=O`, the results for the MIC in the data set with Malassezia furfur and in the data set on Staphylococcus aureus were 1 µg/mL (≈ 3.76 µM) and 0.1 µg/mL (≈ 0.376 µM), respectively.
With `O=C1c2ccccc2-n2c1nc1ccccc1c2=O` [TRYPTANTHRIN], the Activity in the data set with K562 [1] is listed as 33.4%; in the data set with K562 [14], 52.2%; with K562 [18], 21.9%. Further, the IC50 (as a rule, the concentration that gives 50% inhibition) was 10 µM with MOLT-4 [2]; 0.58 to 15.5 µM in the data set with MCF7 [4]; 15 µM in the data set with K562 [5]; 499 µM in [7]; 2 to 20000 µM with HL-60 [8]; 5 µM in the data set with K562 [10]. For the same compound, the IC50 was 0.2 to 0.6 µM in data set [11]; 5 µM with HL-60 [15]; 0.03 to 10 µM with NCI/ADR-RES [20]; 8.8 µg/mL (≈ 35.4 µM) in the data set on K562 [21]; 0.2 to 0.6 µM in data set [22]; 8 µM in the data set on MOLT-4 [23]. For the same compound, the inhibition in vivo (as a rule, the change of the read-out against control, counted positive when it falls) at 10 mg/kg in the data set with Rattus norvegicus [3] was 41%; in the data set on Rattus norvegicus [9], 80%; in the data set with Rattus norvegicus [12], 42%; in the data set on Rattus norvegicus [17], 46%. Also, the Flu intensity in [6] was 2826; in [16], 2740. Moreover, the figures for the MIC in the data set with Malassezia furfur and against Staphylococcus aureus were 4 µg/mL (≈ 16.1 µM) and 0.5 µg/mL (≈ 2.01 µM), respectively. Besides, at 2000 µg/mL the inhibition in [13] was 70%. In addition, in data set [19], at 100 µg/mL the inhibition was 70%.
Consider `O=C1c2ccccc2-n2c1nc1ccc([N+](=O)[O-])cc1c2=O`, for which the minimum inhibitory concentration (MIC) (usually the lowest concentration found to suppress growth) against Malassezia furfur was more than 160 µg/mL; with Staphylococcus aureus, more than 100 µg/mL.
Taken in the same sequence, the figures for `Nc1ccc2nc3n(c(=O)c2c1)-c1ccccc1C3=O` were 20 µg/mL (≈ 76 µM) and 2 µg/mL (≈ 7.6 µM).
Consider `N[C@@H](Cc1c[nH]c2ccccc12)C(=O)O` [TRYPTOPHAN], for which the IC50 in [7] worked out at 499 µM.
As to `CO[C@@H]1[C@@H](OC(N)=O)[C@@H](O)[C@H](Oc2ccc3c(O)c(NC(=O)c4ccc(O)c(CC=C(C)C)c4)c(=O)oc3c2C)OC1(C)C`, the inhibition (commonly the share of the control response that was lost under treatment) was 60.2% in the data set filed under Homo sapiens [24], 38.5% in the data set filed under Homo sapiens [25] and 45.9% in the data set filed under Homo sapiens [26].
Turning to `COc1cccc2c1C(=O)c1c(O)c3c(c(O)c1C2=O)C[C@@](O)(C(=O)CO)C[C@@H]3O[C@H]1C[C@H](N)[C@H](O)[C@H](C)O1` [DOXORUBICIN], the inhibition at 1 µM in the data set with NCI/ADR-RES [27] came out at 20%.
Turning to `Cc1ccc2c(c1)C(=O)c1nc3ccccc3c(=O)n1-2`, the MIC with Malassezia furfur is more than 120 µg/mL; against Staphylococcus aureus, 0.5 µg/mL (≈ 1.91 µM).
Taken in the same sequence, the figures for `O=C1c2ccccc2-n2c1nc1ccc(Br)cc1c2=O` were 4 µg/mL (≈ 12.2 µM) and 0.3 µg/mL (≈ 0.917 µM).
Taken in the same sequence, the figures for `O=C1c2ccccc2-n2c1nc1ccc(Cl)cc1c2=O` were 4 µg/mL (≈ 14.1 µM) and 0.1 µg/mL (≈ 0.354 µM).
Taken in the same sequence, the figures for `COc1ccc2c(c1)C(=O)c1nc3ccccc3c(=O)n1-2` were more than 120 µg/mL and 2.5 µg/mL (≈ 8.98 µM).
Regarding `O=C1c2cc3ccccc3cc2-n2c1nc1ccccc1c2=O`, the inhibition in the data set filed under Homo sapiens [24] was 47.2%; in the data set filed under Homo sapiens [25], 30.7%; in the data set listed under Homo sapiens [28] it was 43.4%. The IC50 in the data set on MCF7 [4] fell in the range of 0.27 to 12.1 µM; in the data set on NCI/ADR-RES [20], 0.16 to 9.82 µM. The Activity in data set [29] was 59%.
`COc1cccc2c1C(=O)c1c(O)c3c(c(O)c1C2=O)C[C@@](O)(C(=O)CO)C[C@@H]3O[C@H]1C[C@H](N)[C@H](O)[C@H](C)O1` [DOXORUBICIN HYDROCHLORIDE]: the IC50 in the data set with MCF7 [4] is 0.99 to 2.63 µM; in the data set on NCI/ADR-RES [20], more than 50 µM. Further, the growth at 3000 µM lay within 0.44 to 78.2% in the data set with NCI/ADR-RES [30] and 3.9 to 24.1% in the data set on MCF7 [31].
Turning to `COc1ccc(CCN(C)CCCC(C#N)(c2ccc(OC)c(OC)c2)C(C)C)cc1OC` (configuration not stated), the Activity in [29] was found to be 18.1%.

For the origin of these results see ChEMBL document CHEMBL4043112, “Recent synthetic and medicinal perspectives of tryptanthrin” (Bioorg Med Chem, 2017).
